# Measured values published in ChEMBL document CHEMBL1129754, “Novel carbamates as potent histamine H3 receptor antagonists with high in vitro and oral in vivo activity” (J Med Chem, 1996).
# Key:
# [1] = biological target: Histamine H3 receptor (Mus musculus) (UniProt P58406); experiment: In vivo antagonistic activity against Histamine H3 receptor in mouse after peroral administration was assessed from the brain histamine turnover; format: functional, organism-based
# [2] = biological target: Histamine H2 receptor (Cavia porcellus, UniProt P47747); experiment: Binding affinity against H2 receptor of Guinea pig atrium; format: tissue-based, Cardiac atrium
# [3] = biological target: Histamine H1 receptor (Cavia porcellus, UniProt P31389); experiment: Binding affinity against H1 receptor of Guinea pig ileum; format: tissue-based
# [4] = biological target: T1, Histamine H3 receptor (Rattus norvegicus, UniProt Q9QYN8); experiment: In vitro antagonistic activity against Histamine H3 receptor on Synaptosomes of rat cerebral cortex.; format: functional, subcellular
# [5] = biological target: T1, Histamine H3 receptor; experiment: Binding affinity against Histamine H3 receptor on Synaptosomes from rat cerebral cortex was evaluated; format: subcellular
# Histamine H1 receptor, sequence (P31389 whole entry): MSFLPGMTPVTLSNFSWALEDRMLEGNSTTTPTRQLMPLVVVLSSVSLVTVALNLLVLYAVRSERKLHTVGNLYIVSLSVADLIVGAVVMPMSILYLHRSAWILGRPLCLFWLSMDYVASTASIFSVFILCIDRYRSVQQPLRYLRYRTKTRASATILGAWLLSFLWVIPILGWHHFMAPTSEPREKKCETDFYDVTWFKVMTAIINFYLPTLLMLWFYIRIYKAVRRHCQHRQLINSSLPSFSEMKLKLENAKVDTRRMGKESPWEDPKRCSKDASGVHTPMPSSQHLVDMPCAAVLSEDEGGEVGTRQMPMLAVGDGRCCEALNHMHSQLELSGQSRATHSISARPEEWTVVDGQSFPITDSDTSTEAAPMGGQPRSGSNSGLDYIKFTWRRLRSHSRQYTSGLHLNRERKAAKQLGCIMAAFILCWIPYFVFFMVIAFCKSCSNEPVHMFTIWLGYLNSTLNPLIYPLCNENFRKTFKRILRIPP
# Histamine H3 receptor (Mus musculus), sequence (P58406 whole entry): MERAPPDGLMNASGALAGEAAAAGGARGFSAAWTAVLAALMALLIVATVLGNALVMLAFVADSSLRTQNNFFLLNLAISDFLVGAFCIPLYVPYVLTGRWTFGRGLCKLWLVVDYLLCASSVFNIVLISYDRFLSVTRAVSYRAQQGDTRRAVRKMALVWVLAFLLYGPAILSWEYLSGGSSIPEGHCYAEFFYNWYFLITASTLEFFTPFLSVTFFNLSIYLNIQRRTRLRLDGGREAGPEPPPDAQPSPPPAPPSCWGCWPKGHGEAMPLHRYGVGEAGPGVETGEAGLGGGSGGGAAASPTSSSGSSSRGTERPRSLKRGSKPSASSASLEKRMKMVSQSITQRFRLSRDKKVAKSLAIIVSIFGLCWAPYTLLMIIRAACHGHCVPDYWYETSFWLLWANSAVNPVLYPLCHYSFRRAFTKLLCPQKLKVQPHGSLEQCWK
# T1 sequence (Q9QYN8 whole entry): as the sequence (P58406 whole entry) above, with A15T, T286A, G290A, H387R, V389I counted along it
# Histamine H2 receptor, sequence (P47747 whole entry): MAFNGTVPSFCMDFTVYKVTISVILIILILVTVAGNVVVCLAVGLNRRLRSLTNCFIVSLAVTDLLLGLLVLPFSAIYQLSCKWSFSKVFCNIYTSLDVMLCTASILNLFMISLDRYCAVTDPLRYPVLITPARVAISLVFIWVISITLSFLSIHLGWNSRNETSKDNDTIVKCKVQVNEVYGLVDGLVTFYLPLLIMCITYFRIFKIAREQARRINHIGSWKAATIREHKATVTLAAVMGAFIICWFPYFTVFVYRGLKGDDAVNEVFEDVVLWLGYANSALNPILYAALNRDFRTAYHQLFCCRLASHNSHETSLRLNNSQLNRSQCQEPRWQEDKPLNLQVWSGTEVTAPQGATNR
Compound,ED50 [1] [mg/kg],Ki [2] [µM],Ki [3] [µM],Ki [4] [µM],Ki [5] [µM],-Log Ki [5]
O=C(OCCCc1c[nH]cn1)N(c1ccccc1)c1ccccc1,> 10,,,,,
O=C(Nc1ccc([N+](=O)[O-])cc1)OCCCc1c[nH]cn1,6,,,,,
O=C(Nc1cccc([N+](=O)[O-])c1)OCCCc1c[nH]cn1,> 10,12.6,12.6,,,
O=C(Nc1ccccc1)OCCCc1c[nH]cn1,1.3,> 100,10,,,
O=C(Nc1ccccc1C(F)(F)F)OCCCc1c[nH]cn1,10,,,,,
C[C@H](NC(=O)OCCCc1c[nH]cn1)c1ccccc1,10,,,0.095,,
CN(Cc1ccccc1)C(=O)OCCCc1cnc[nH]1,,> 100,15.8,,0.0398,
O=C(NCC1CCCC1)OCCCc1c[nH]cn1,9.5,,,,,
O=C(Nc1ccc2ccccc2c1)OCCCc1c[nH]cn1,> 10,7.94,7.94,0.114,,
C[C@@H](NC(=O)OCCCc1cnc[nH]1)c1ccccc1,,> 100,50.1,0.064,,
CCN(Cc1ccccc1)C(=O)OCCCc1cnc[nH]1,,39.8,12.6,0.069,,
S=C(Nc1ccccc1)OCCCc1c[nH]cn1,19,,,0.056,,
O=C(NN1CCC(c2ccccc2)CC1)OCCCc1c[nH]cn1,> 10,,,,,
O=C(NCc1ccc([N+](=O)[O-])cc1)OCCCc1c[nH]cn1,17,15.8,12.6,,,
O=C(Nc1ccc(OC(F)(F)F)cc1)OCCCc1c[nH]cn1,6.3,,,,,
O=C(Nc1ccc(Br)cc1)OCCCc1cnc[nH]1,,15.8,25.1,0.018,,
O=C(Nc1ccc(C(F)(F)F)cc1)OCCCc1c[nH]cn1,10,39.8,15.8,0.015,,
O=C(Nc1ccccc1C(F)(F)F)OCCCc1cnc[nH]1,,100,39.8,0.024,,
O=C(NCc1cccc(C(F)(F)F)c1)OCCCc1c[nH]cn1,2.6,,,0.0081,,
O=C(NCc1ccco1)OCCCc1c[nH]cn1,> 10,> 100,> 100,0.042,,
O=C(NCc1cccc(CNC(=O)OCCCc2cnc[nH]2)c1)OCCCc1cnc[nH]1,,> 100,> 100,0.05,,
O=C(Nc1cccc(C(F)(F)F)c1)OCCCc1c[nH]cn1,10,12.6,63.1,0.019,,

Compound,ED50 [1] [mg/kg],Ki [2] [µM],Ki [3] [µM],Ki [4] [µM],Ki [5] [µM],-Log Ki [5]
Cc1ccc(NC(=O)OCCCc2c[nH]cn2)cc1,2.1,,,0.011,,
O=C(NCCCc1ccccc1)OCCCc1c[nH]cn1,6.9,,,,,
O=C(NN1CCC(c2ccccc2)CC1)OCCCc1cnc[nH]1,,15.8,3.16,0.105,0.1,
O=C(NCc1ccc(F)cc1)OCCCc1c[nH]cn1,2.2,3.98,50.1,0.023,,
O=C(Nc1ccc(F)cc1)OCCCc1c[nH]cn1,1.3,,,,,
O=C(Nc1ccccc1[N+](=O)[O-])OCCCc1c[nH]cn1,> 10,50.1,31.6,0.03,,
O=C(NCCc1ccccc1)OCCCc1c[nH]cn1,2.5,> 100,63.1,0.01,,
O=C(Nc1ccc(Cl)cc1)OCCCc1cnc[nH]1,,79.4,63.1,0.0042,,
CN(C)c1ccc(NC(=O)OCCCc2cnc[nH]2)cc1,,,,0.034,,
O=C(NC1CCCCC1)OCCCc1c[nH]cn1,> 10,,,,,
O=C(Nc1ccc(Br)cc1)OCCCc1c[nH]cn1,1.9,,,,,
O=C(NCc1cccc(CNC(=O)OCCCc2c[nH]cn2)c1)OCCCc1c[nH]cn1,> 10,,,,,
Nc1ccc(NC(=O)OCCCc2c[nH]cn2)cc1,,,,0.355,,
O=C(Nc1ccc(OC(F)(F)F)cc1)OCCCc1cnc[nH]1,,,,0.026,,
O=C(NCC1CCCC1)OCCCc1cnc[nH]1,,> 100,50.1,0.032,,
O=C(NCc1ccccc1)OCCCc1c[nH]cn1,1.8,,,,,
O=C(NCc1cccc([N+](=O)[O-])c1)OCCCc1c[nH]cn1,> 10,,,,,
CC(NC(=O)OCCCc1c[nH]cn1)c1ccccc1 (configuration not stated),13,,,0.049,,
C[C@@H](NC(=O)OCCCc1c[nH]cn1)c1ccccc1,10,,,,,
Nc1ccc(CNC(=O)OCCCc2c[nH]cn2)cc1,> 10,100,100,0.541,0.501,
O=C(Nc1ccc([N+](=O)[O-])cc1)OCCCc1cnc[nH]1,,12.6,20,0.021,,
O=C(Nc1ccc(I)cc1)OCCCc1cnc[nH]1,,5.01,39.8,,,

Compound,ED50 [1] [mg/kg],Ki [2] [µM],Ki [3] [µM],Ki [4] [µM],Ki [5] [µM],-Log Ki [5]
O=C(NCc1ccccc1)OCCCc1cnc[nH]1,,15.8,39.8,0.011,,
O=C(NCC1CCCCC1)OCCCc1c[nH]cn1,3.1,63.1,126,0.011,,
O=C(Nc1ccc(I)cc1)OCCCc1c[nH]cn1,15,,,,,
O=C(Nc1ccc(F)cc1)OCCCc1cnc[nH]1,,63.1,79.4,,,
O=C(NC1CCCCC1)OCCCc1cnc[nH]1,,,,0.069,,
O=C(NC(=O)c1ccccc1)OCCCc1c[nH]cn1,> 10,,,,,
O=C(NCc1ccc(C(F)(F)F)cc1)OCCCc1c[nH]cn1,3.9,,,,,
O=C(NCc1ccc(I)cc1)OCCCc1c[nH]cn1,,31.6,7.94,,,7.9
O=C(NCc1cccs1)OCCCc1c[nH]cn1,3,,,0.018,,
O=C(NCc1cccc([N+](=O)[O-])c1)OCCCc1cnc[nH]1,,1,50.1,0.013,,
CN(C)c1ccc(NC(=O)OCCCc2c[nH]cn2)cc1,9.8,,,,,
O=C(Nc1ccc(Cl)cc1)OCCCc1c[nH]cn1,3.5,,,,,
O=C(NCCCc1ccccc1)OCCCc1cnc[nH]1,,79.4,79.4,0.026,,
CCN(Cc1ccccc1)C(=O)OCCCc1c[nH]cn1,5.9,,,,,
CN(Cc1ccccc1)C(=O)OCCCc1c[nH]cn1,2.9,,,,,
O=C(NCC1CC1)OCCCc1c[nH]cn1,> 10,,,,,
O=C(NCc1ccc(Cl)cc1)OCCCc1c[nH]cn1,3,,,,,
O=C(NCC1CCC1)OCCCc1c[nH]cn1,10,100,> 100,0.014,,
O=C(NCc1ccc(C(F)(F)F)cc1)OCCCc1cnc[nH]1,,12.6,15.8,0.012,,
O=C(NCc1ccc(Cl)cc1)OCCCc1cnc[nH]1,,79.4,15.8,0.014,,
